According to PMC8399014, “Design of Multifaceted Antioxidants: Shifting towards Anti-Inflammatory and Antihyperlipidemic Activity” (Molecules, 2021):
Where two headings read alike, the source gives them in different places. Marks after values point to notes of the source that are not given here.

Experiments:
[1] = tested on: carrageenan-induced mouse paw edema; experiment: Carrageenan-induced mouse paw edema; format: in vivo; details: for inhibition in vivo at 300 µmol/kg: Mus musculus, ip, 0.30 mmol/kg i.p., 3.5 h after carrageenan, mean of 6 animals, read-out: % Edema Reduction
Protocol: In vivo anti-inflammatory activity of the synthesized compounds was evaluated as mouse paw edema reduction. Paw edema was induced by subcutaneous injection of a 2% carrageenan suspension in the right paw of mice, the left serving as the control. The activity of the tested compounds (at 0.30 mmol/kg of body weight, i.p.), expressed as % reduction in paw edema 3.5 h after carrageenan injection, is shown in Table 2. […] Moreover, compounds 9 and 10 (antioxidant derivatives of mefenamic acid) caused a 1.5–2-fold improvement in edema reduction compared to that of the parent mefenamic acid (i).
For the in vivo anti-inflammatory activity, Wistar male rats or C57BL/6 mice were injected with 0.025 mL carrageenan (2% w/v solution in saline) i.d. into the right hind paw, with the left paw serving as the control. The test compounds (300 μmol/kg) were given, i.p., after the carrageenan injection, and 3.5 h later, the produced edema was estimated as the paw weight increase. Results are expressed as percentage of the reduction in paw edema and are the means for six animals (per compound).

[2] = tested on: rat/mouse microsomal lipid peroxidation; parameters: method as in doi:10.1002/(SICI)1098-2299(199905)47:1<9::AID-DDR2>3.0.CO; details: after 45 min of incubation; read-out: IC50 against microsomal lipid peroxidation; cited from earlier work
[3] = target: T1, soybean lipoxygenase (LOX-3) (Glycine max, UniProt P09186); experiment: Soybean lipoxygenase (LOX-3) inhibition; format: biochemical; details: for LOX-3 inhibitory activity (in words): parent antioxidants
T1 sequence (P09186 1-857): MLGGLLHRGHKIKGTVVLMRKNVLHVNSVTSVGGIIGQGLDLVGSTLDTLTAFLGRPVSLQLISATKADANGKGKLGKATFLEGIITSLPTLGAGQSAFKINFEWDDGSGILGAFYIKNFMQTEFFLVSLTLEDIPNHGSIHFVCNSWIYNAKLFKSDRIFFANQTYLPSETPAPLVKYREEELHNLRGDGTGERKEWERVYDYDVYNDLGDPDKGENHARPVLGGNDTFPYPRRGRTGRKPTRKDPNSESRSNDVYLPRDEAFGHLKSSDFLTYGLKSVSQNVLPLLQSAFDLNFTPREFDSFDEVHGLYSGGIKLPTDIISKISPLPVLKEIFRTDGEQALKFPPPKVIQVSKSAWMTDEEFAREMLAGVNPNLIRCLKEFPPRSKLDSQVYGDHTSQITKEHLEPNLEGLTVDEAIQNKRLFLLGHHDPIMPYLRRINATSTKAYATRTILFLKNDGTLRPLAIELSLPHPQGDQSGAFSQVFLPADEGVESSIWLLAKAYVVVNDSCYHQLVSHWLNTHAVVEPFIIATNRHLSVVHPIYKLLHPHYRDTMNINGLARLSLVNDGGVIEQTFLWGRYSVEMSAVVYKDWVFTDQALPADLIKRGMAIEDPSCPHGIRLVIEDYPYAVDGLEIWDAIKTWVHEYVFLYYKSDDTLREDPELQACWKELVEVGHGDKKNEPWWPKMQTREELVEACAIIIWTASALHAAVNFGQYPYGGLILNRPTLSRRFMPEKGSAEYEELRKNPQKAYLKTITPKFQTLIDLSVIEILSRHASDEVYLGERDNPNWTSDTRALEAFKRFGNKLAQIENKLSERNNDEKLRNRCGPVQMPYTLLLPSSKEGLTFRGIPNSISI
Protocol: The anti-inflammatory effect of the synthesized compounds was initially evaluated in vitro, via their ability to inhibit soybean lipoxygenase (LOX-3).
Lipoxygenase activity was determined using soybean lipoxygenase (250 U/mL) and sodium linoleate (100 μM) as substrate, in Tris–HCl buffer pH 9.0. The test compounds dissolved in methanol were added and the reaction was monitored for 5 min at 28 °C, recording absorbance at 234 nm.

[4] = tested on: carrageenan-induced mouse paw edema; details: cited from earlier work
[5] = tested on: rat/mouse microsomal lipid peroxidation; experiment: Inhibition of microsomal lipid peroxidation; format: biochemical, C57BL/6 mice; details: after 45 min of incubation; read-out: IC50 against microsomal lipid peroxidation
Protocol: The antioxidant effect of the new compounds, as well as their parent compounds was also evaluated by the protection offered against rat/mouse microsomal lipid peroxidation.
The incubation mixture contained heat-inactivated (90 °C for 90 s) liver microsomal fraction from untreated C57BL/6 mice (corresponding to 2.5 mg of hepatic protein per milliliter or 4 mM fatty acid residues), ascorbic acid (0.2 mM) in Tris–HCl/KCl buffer (50 mM/ 150 mM, pH 7.4), and the studied compounds dissolved in dimethyl sulfoxide (in different concentrations). The reaction was initiated by the addition of a freshly prepared FeSO4 solution (10 μM), and the mixture was incubated at 37 °C for 45 min. Aliquots were taken at various time intervals and lipid peroxidation was assessed by the spectrophotometric (535 against 600 nm) determination of the produced 2-thiobarbituric acid reactive material.

[6] = Radical scavenging of DPPH; details: DPPH 200 μM, after incubation for 30 min
Protocol: The antioxidant activity of compounds 1–17 was evaluated via their ability to scavenge the free radical DPPH.
Compounds dissolved in absolute methanol at concentrations of 25–400 μM were added to an equal volume of a methanolic solution of DPPH (final concentration 200 μM) at room temperature (22 ± 2 °C). Absorbance (517 nm) was recorded at different time intervals for 1 h and results were expressed as IC50 (μM) for DPPH after incubation for 30 min [3].

[7] = tested on: experimentally induced hyperlipidemic mouse model; experiment: Tyloxapol (Triton WR 1339)-induced hyperlipidemia; format: in vivo, mice; details: 84 μmol/kg i.p.; 24 h after tyloxapol
Protocol: Acute hyperlipidemia was achieved, i.p., by the administration of tyloxapol (Triton WR 1339). The antihyperlipidemic effect of the tested compounds was evaluated as the decrease in total cholesterol (TC) and triglyceride (TG) levels in plasma 24 h after tyloxapol administration. The results are shown in Figure 4A,B. Compounds 9 and 10 reduced TC levels in plasma by 73% and 50%, respectively, and TG levels by 76% and 41%, respectively.
An aqueous solution of Triton WR 1339 was given, i.p., to mice (400 mg/kg of body weight) and one hour later the test compounds (84 μmol/kg of body weight), dissolved in saline or saline only were administered, i.p. After 24 h, blood was taken from the aorta/heart and used for the determination of plasma total cholesterol (TC) and triglyceride (TG) levels, using commercially available kits. Levels of plasma lipids were determined in duplicate while the values presented were the mean from eight animals (per compound).

[8] = after 5 min of incubation, sodium linoleate 100 μM, pH 9.0, read-out: IC50 Value on LOX-3

Row | SMILES | IC50 [5] [µM] | LOX-3 inhibitory activity (in words) [3] | IC50 [6] [µM] | inhibition in vivo at 300 µmol/kg [1] [%] | other results
1 | Cc1cccc(Nc2ccccc2C(=O)O)c1C [i, Mefenamic acid, reference compound] | – | – | – | 35 | IC50 [2]: 130 µM
2 | COc1ccc2cc([C@H](C)C(=O)O)ccc2c1 [c, Naproxen, reference compound] | – | – | – | – | IC50 [3]: 25 µM; % Edema Reduction ([4]; 0.30 mmol/kg i.p.): 51** [11] %
3 | Cc1c(Cl)cccc1Nc1ccccc1C(=O)O [e, Tolfenamic acid] | – | – | – | – | % Edema Reduction ([4]; 0.30 mmol/kg i.p.): 60*** [5] %; IC50 [2]: 250 µM
4 | Cc1c(C)c2c(c(C)c1O)CCC(C)(C(=O)O)O2 (stereo not drawn) [Trolox, 6-hydroxy-2,5,7,8-tetramethylchromane-2-carboxylic acid, reference compound] | 25 | little or no inhibitory activity | 33 | 46 | –
5 | COc1ccc2cc(C(C)C(=O)OCc3cc(C(C)(C)C)c(O)c(C(C)(C)C)c3)ccc2c1 (stereo not drawn) [Compound 3, 3,5-di-tert-butyl-4-hydroxybenzyl 2-(6-methoxynaphthalen-2-yl)propanoate] | – | – | – | – | melting point: 85 to 86 °C; IC50 [3, 8]: 41 µM; % Edema Reduction ([4]; 0.15 mmol/kg i.p.): 78**^a [11] %
6 | CC(C)(C)c1cc(C(=O)O)cc(C(C)(C)C)c1O [BHB, 3,5-di-tert-butyl-4-hydroxybenzoic acid, reference compound] | 257 | little or no inhibitory activity | 31 | 53 | –

The next lines start with results.

Row | IC50 [5] [µM] | LOX-3 inhibitory activity (in words) [3] | IC50 [6] [µM] | SMILES | inhibition in vivo at 300 µmol/kg [1] [%] | other results
7 | 10 | little or no inhibitory activity | 160 | CC(C)(C)c1cc(CO)cc(C(C)(C)C)c1O [BHBA, 3,5-di-tert-butyl-4-hydroxybenzyl alcohol, reference compound] | 71 | –
8 | 5 | – | – | Cc1cccc(Nc2ccccc2C(=O)OCc2cc(C(C)(C)C)c(O)c(C(C)(C)C)c2)c1C [Compound 9, 3,5-di-tert-butyl-4-hydroxybenzyl 2-((2,3-dimethylphenyl)amino)benzoate] | 63 | IC50 [3, 8]: 108 µM; improvement in edema reduction ([1]; compared to parent mefenamic acid (i)): 1.5–2 fold; reduction of total cholesterol (TC) levels in plasma [7]: 73%; reduction of triglyceride (TG) levels in plasma [7]: 76%
